Measured values as given in ChEMBL document CHEMBL5107990, “Discovery of 2-vinyl-10H-phenothiazine derivatives as a class of ferroptosis inhibitors with minimal human Ether-a-go-go related gene (hERG) activity for the treatment of DOX-induced cardiomyopathy” (Bioorg Med Chem Lett, 2022).
pEC50, pIC50: −log10 of the molar value. The source made the active and inactive calls. No cut-off for these calls is given here.

Experiments:
HT-1080 [1] = test: Anti-ferroptotic activity against Erastin-induced ferroptosis in human HT-1080 cells; format: functional, cell-based
[2] = biological target: Voltage-gated inwardly rectifying potassium channel KCNH2 (Homo sapiens, UniProt Q12809); test: Inhibition of hERG; format: toxicity
HT-1080 [3] = test: Anti-ferroptotic activity against Erastin-induced ferroptosis in human HT-1080 cells assessed as cell viability measured by MTT assay; format: functional, cell-based
Calu-1 [4] = test: Anti-ferroptotic activity against Erastin-induced ferroptosis in human Calu-1 cells assessed as cell viability measured by MTT assay; format: functional, cell-based
ES-2 = test: Anti-ferroptotic activity against Erastin-induced ferroptosis in human ES2 cells assessed as cell viability measured by MTT assay; format: functional, cell-based
MDA-MB-231 = test: Anti-ferroptotic activity against Erastin-induced ferroptosis in human MDA-MB-231 cells assessed as cell viability measured by MTT assay; format: functional, cell-based
HT-1080 [5] = test: Anti-ferroptotic activity against Erastin-induced ferroptosis in human HT-1080 cells assessed as decrease in smaller and rounder cells measured by cytocalcein violet 450 staining method; format: functional, cell-based
HT-1080 [6] = test: Anti-ferroptotic activity against Erastin-induced ferroptosis in human HT-1080 cells assessed as decrease in smaller and rounder cells measured by 7-AAD staining method; format: functional, cell-based
Calu-1 [7] = test: Anti-ferroptotic activity against Erastin-induced ferroptosis in human Calu-1 cells assessed as decrease in smaller and rounder cells measured by cytocalcein violet 450 staining method; format: functional, cell-based
Calu-1 [8] = test: Anti-ferroptotic activity against Erastin-induced ferroptosis in human Calu-1 cells assessed as decrease in smaller and rounder cells measured by 7-AAD staining method; format: functional, cell-based
HT-1080 [9] = test: Anti-ferroptotic activity against Erastin-induced ferroptosis in human HT-1080 cells assessed as decrease in MDA level at 0.01 to 1 uM; format: functional, cell-based; conditions: dose 0.01-1 µM
[10] = Antioxidant activity assessed as DPPH radical scavenging activity at 10 to 50 uM; format: functional; conditions: dose 10-50 µM
HT-1080 [11] = test: Antioxidant activity in human HT-1080 cells assessed as reduction in ROS production in cytoplasm at 0.01 to 1 uM measured by H2DCFDA staining method; format: functional, cell-based; conditions: dose 0.01-1 µM
HT-1080 [12] = test: Antioxidant activity in human HT-1080 cells assessed as reduction in lipid ROS production at 0.01 to 1 uM measured by C11-BODIPY staining method; format: functional, cell-based; conditions: dose 0.01-1 µM
Mus musculus [13] = test: Protection against doxorubicin-induced cardiomyopathy model of mouse assessed as decrease in serum AST level at 10 to 30 mg/kg, ip administered 2 hrs prior to doxorubicin administration; format: functional, organism-based; conditions: dose 10-30 mg/kg
Mus musculus [14] = test: Protection against doxorubicin-induced cardiomyopathy model of mouse assessed as decrease in serum ALT level at 10 to 30 mg/kg, ip administered 2 hrs prior to doxorubicin administration; format: functional, organism-based; conditions: dose 10-30 mg/kg
Mus musculus [15] = test: Protection against doxorubicin-induced cardiomyopathy model of mouse assessed as decrease in serum CK-MB level at 10 to 30 mg/kg, ip administered 2 hrs prior to doxorubicin administration; format: functional, organism-based; conditions: dose 10-30 mg/kg
Mus musculus [16] = test: Protection against doxorubicin-induced cardiomyopathy model of mouse assessed as decrease in serum LDH level at 10 to 30 mg/kg, ip administered 2 hrs prior to doxorubicin administration; format: functional, organism-based; conditions: dose 10-30 mg/kg
Mus musculus [17] = test: Protection against doxorubicin-induced cardiomyopathy model of mouse assessed as […] in collagen outflow at 10 to 30 mg/kg, ip administered 2 hrs prior to doxorubicin administration measured by H and E staining method; format: functional, organism-based; conditions: dose 10-30 mg/kg
Mus musculus [18] = test: Protection against doxorubicin-induced cardiomyopathy model of mouse assessed as […] in collagen outflow at 10 to 30 mg/kg, ip administered 2 hrs prior to doxorubicin administration measured by Sirius red staining method; format: functional, organism-based; conditions: dose 10-30 mg/kg

Sequence of Voltage-gated inwardly rectifying potassium channel KCNH2 (Q12809 whole entry): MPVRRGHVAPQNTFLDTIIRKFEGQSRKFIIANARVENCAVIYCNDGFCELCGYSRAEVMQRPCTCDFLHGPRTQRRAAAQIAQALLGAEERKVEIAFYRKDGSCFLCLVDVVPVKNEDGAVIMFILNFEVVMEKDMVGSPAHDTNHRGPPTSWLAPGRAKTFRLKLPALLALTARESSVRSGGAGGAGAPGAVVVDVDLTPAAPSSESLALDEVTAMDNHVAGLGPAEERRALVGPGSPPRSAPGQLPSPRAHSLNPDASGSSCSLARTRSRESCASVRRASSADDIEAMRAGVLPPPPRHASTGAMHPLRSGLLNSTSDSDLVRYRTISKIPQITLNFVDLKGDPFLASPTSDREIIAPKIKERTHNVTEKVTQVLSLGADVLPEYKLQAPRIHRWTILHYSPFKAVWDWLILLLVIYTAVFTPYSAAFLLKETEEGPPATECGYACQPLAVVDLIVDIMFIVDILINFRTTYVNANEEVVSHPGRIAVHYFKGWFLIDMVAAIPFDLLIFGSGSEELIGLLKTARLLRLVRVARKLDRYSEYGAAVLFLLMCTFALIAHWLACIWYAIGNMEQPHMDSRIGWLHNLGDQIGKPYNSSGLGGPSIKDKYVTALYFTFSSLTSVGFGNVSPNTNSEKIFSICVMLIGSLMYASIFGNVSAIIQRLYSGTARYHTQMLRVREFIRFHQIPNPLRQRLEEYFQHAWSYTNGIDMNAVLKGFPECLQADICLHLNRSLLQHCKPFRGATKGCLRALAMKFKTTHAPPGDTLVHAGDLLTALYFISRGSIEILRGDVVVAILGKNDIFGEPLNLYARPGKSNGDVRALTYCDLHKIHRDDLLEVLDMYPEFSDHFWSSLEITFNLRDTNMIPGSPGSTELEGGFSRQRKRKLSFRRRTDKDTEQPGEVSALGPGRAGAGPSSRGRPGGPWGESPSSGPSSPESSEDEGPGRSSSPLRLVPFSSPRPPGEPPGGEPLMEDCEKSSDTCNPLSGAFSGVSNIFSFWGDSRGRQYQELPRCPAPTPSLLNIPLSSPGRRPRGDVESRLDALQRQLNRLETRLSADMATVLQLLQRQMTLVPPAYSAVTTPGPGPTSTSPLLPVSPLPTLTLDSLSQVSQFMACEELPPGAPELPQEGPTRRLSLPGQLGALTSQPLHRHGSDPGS

pEC50 (HT-1080 [1])	SMILES	also measured
7.40	C=C(c1ccc(C(C)C)cc1)c1ccc2c(c1)Nc1ccccc1S2	–
8.10	C=C(c1ccc(N)cc1)c1ccc2c(c1)Nc1ccccc1S2	–
7.41	C=C(c1ccc(N2CCOCC2)cc1)c1ccc2c(c1)Nc1ccccc1S2	–
7.89	C=C(c1ccc(OC)cc1)c1ccc2c(c1)Nc1ccccc1S2	–
7.70	C=C(c1ccc(NC(=O)N(C)C)cc1)c1ccc2c(c1)Nc1ccccc1S2	–
7.59	C=C(c1ccc2c(c1)Nc1ccccc1S2)c1cccc2cnccc12	–
7.43	C=C(c1ccc2c(c1)Nc1ccccc1S2)c1ccc2c(c1)OCCO2	–
7.38	C=C(c1ccc2c(c1)Nc1ccccc1S2)c1cnc2c(ccn2C)c1	–
8.00	C=C(c1ccccc1)c1ccc2c(c1)Nc1ccccc1S2	–
7.24	C=C(c1ccc2c(c1)Nc1ccccc1S2)c1cnc2c(cnn2C)c1	–
7.41	C=C(c1ccc(C2CCCCC2)cc1)c1ccc2c(c1)Nc1ccccc1S2	–
7.39	C=C(c1ccc(-c2ccccc2)cc1)c1ccc2c(c1)Nc1ccccc1S2	–
7.54	C=C(c1ccc2c(c1)Nc1ccccc1S2)c1ccccc1N	–
7.48	C=C(c1ccc2c(c1)Nc1ccccc1S2)c1ccc2c(c1)SCC(=O)N2	–
7.68	C=C(c1ccc2c(c1)Nc1ccccc1S2)c1cccc2ccncc12	–
9.00	C=C(c1ccc(N2CC[C@H](N(C)C)C2)cc1)c1ccc2c(c1)Nc1ccccc1S2	pIC50 [2]: 5.30
7.96	C=C(c1ccc(C(F)(F)F)cc1)c1ccc2c(c1)Nc1ccccc1S2	–
7.05	C=C(c1cnc2c(c1)CCN2)c1ccc2c(c1)Nc1ccccc1S2	–
8.52	CC(c1ccc(N2C[C@@H]3C[C@H]2CN3C)cc1)c1ccc2c(c1)Nc1ccccc1S2 (stereo partly drawn)	pIC50 [2]: 5.70
8.40	C=C(c1ccc(NC(C)=O)cc1)c1ccc2c(c1)Nc1ccccc1S2	pIC50 [2]: 4.66
8.52	C=C(c1ccc(N2C[C@@H]3C[C@H]2CN3C)cc1)c1ccc2c(c1)Nc1ccccc1S2	pIC50 [2]: 4.92
7.77	C=C(c1cccc(N)c1)c1ccc2c(c1)Nc1ccccc1S2	–
9.00	C=C(c1ccc(NC(N)=O)cc1)c1ccc2c(c1)Nc1ccccc1S2	pIC50 [2]: < 4.52; pEC50 (HT-1080 [3]): 8.79; pEC50 (Calu-1 [4]): 8.47; pEC50 (ES-2): 8.74; pEC50 (MDA-MB-231): 9.00; Activity (HT-1080 [5]): Active; Activity (HT-1080 [6]): Active; Activity (Calu-1 [7]): Active; Activity (Calu-1 [8]): Active; Activity (HT-1080 [9]): Active; Activity [10]: Active; Activity (HT-1080 [11]): Active; Activity (HT-1080 [12]): Active; Activity (Mus musculus [13]): Active; Activity (Mus musculus [14]): Active; Activity (Mus musculus [15]): Active; Activity (Mus musculus [16]): Active; Activity (Mus musculus [17]): Active; Activity (Mus musculus [18]): Active
7.72	C=C(c1ccc2c(c1)Nc1ccccc1S2)c1cnc2ccccc2c1	–
7.60	C=C(c1ccc2c(c1)Nc1ccccc1S2)c1cncc2ccccc12	–
